The assay addresses T1, IRAK4 (Homo sapiens, UniProt Q9NWZ3).
T1 construct: Degradation of IRAK4 in OCI-LY10 was quantitatively measured using Meso Scale Discovery technology; endogenous in cells; host or cells: OCI-LY10
T1 sequence (Q9NWZ3 1-460): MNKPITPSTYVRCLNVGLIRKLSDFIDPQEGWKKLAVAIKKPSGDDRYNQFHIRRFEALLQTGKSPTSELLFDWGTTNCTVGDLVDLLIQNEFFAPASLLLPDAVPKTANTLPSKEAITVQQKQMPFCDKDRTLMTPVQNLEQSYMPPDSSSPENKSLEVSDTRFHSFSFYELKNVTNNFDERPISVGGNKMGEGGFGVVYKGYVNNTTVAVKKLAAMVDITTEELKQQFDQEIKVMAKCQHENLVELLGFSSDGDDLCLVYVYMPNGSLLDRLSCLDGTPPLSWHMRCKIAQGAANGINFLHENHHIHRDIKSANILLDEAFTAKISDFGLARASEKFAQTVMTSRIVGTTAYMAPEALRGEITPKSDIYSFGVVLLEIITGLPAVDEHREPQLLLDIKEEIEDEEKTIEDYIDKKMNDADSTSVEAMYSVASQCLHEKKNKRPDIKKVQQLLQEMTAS
In words: IRAK4 MSD Degradation in OCI-LY10. In kind it is cell-based. The conditions noted are these: OCI-LY10 cells, MSD. The method, boiled down:
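OCI-LY10 cells exposed to 8-point 1:3 compound series (top 1 to 10 μM) for 4 to 24 h at 37 °C, 5% CO2. Lysate IRAK4 quantified by MSD sandwich immunoassay. DC50 from three-parameter logistic fit, binned A (<0.01 μM) to D (>0.2 μM or not tested).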

The mark [1] stands for this setting: 4 hrs incubation, read-out: IRAK4 degradation in OCI-LY10 at 4 hrs: DC50.
Where [2] appears, read: 24 hrs incubation, read-out: IRAK4 degradation in OCI-LY10 at 24 hrs: DC50.

Read-outs that look alike come from different tables or passages of the source.

The term DC50 denotes the midpoint of the concentration-degradation curve. `Cn1c(=O)n(C2CCC(=O)NC2=O)c2cccc(C#CCN3CCN(C[C@H]4CC[C@H](n5cc(NC(=O)c6cnn7ccc(OC8CCCCC8)nc67)c(C(F)F)n5)CC4)CC3)c21` (stereo partly shown) [I-246]: the DC50 was over 200 nM under setting [1] and over 200 nM under setting [2].
Take `COc1cc2nn([C@H]3CC[C@H](CN4CCC5(CC4)CCN(c4cccc6c4n(C)c(=O)n6C4CCC(=O)NC4=O)CC5)CC3)cc2cc1NC(=O)c1cc(F)cc(C#N)c1` (stereo partly shown) [I-247]: the 50% degradation concentration (DC50) is over 200 nM under setting [1] and under 10 nM under setting [2].
Taken in the same sequence, the figures for `O=C1CCC(c2cccc3c(C#CCOC4CCN(C[C@H]5CC[C@H](n6cc(NC(=O)c7cnn8ccc(N9C[C@H]%10C[C@@H]9CO%10)nc78)c(C(F)F)n6)CC5)CC4)cccc23)C(=O)N1` (stereo partly shown) [I-248] were over 200 nM and 10 to 100 nM.
Taken in the same sequence, the figures for `O=C1CCC(c2cncc3c(C#CCOC4CCN(C[C@H]5CC[C@H](n6cc(NC(=O)c7cnn8ccc(N9C[C@H]%10C[C@@H]9CO%10)nc78)c(C(F)F)n6)CC5)CC4)cccc23)C(=O)N1` (stereo partly shown) [I-249] were over 200 nM and over 200 nM.
Taken in the same sequence, the figures for `O=C1CCC(c2cccc3c(C#CCN4CCN(C[C@H]5CC[C@@H](n6cc(NC(=O)c7cnn8ccc(N9C[C@H]%10C[C@@H]9CO%10)nc78)c(C(F)F)n6)CC5)CC4)cccc23)C(=O)N1` (stereo partly shown) [I-250] were over 200 nM and 10 to 100 nM.
For `O=C1CCC(c2cncc3c(C#CCN4CCN(C[C@H]5CC[C@@H](n6cc(NC(=O)c7cnn8ccc(N9C[C@H]%10C[C@@H]9CO%10)nc78)c(C(F)F)n6)CC5)CC4)cccc23)C(=O)N1` (stereo partly shown) [I-251], the DC50 is over 200 nM under setting [1] and over 200 nM under setting [2].
On to `COc1cc2nn([C@H]3CC[C@H](CN4CCC5(CC4)CCN(c4cccc6c(C7CCC(=O)NC7=O)cccc46)CC5)CC3)cc2cc1NC(=O)c1cncc(C#N)c1` (stereo partly shown) [I-252], for which the half-maximal degradation concentration (DC50) under setting [1] was over 200 nM and the half-maximal degradation concentration (DC50) under setting [2] was 10 to 100 nM.
Taken in the same sequence, the figures for `COc1cc2nn([C@H]3CC[C@H](CN4CCC5(CC4)CCN(c4cccc6c(C7CCC(=O)NC7=O)cncc46)CC5)CC3)cc2cc1NC(=O)c1cncc(C#N)c1` (stereo partly shown) [I-253] were over 200 nM and over 200 nM.
Taken in the same sequence, the figures for `COc1cc2nn([C@H]3CC[C@H](CN4CCC5(CC4)CCN(c4ccc(Cl)c(N6CCC(=O)NC6=O)c4)CC5)CC3)cc2cc1NC(=O)c1cncc(C#N)c1` [I-254] were over 200 nM and over 200 nM.
Taken in the same sequence, the figures for `COc1cc2nn([C@H]3CC[C@H](CN4CCC5(CC4)CCN(c4ccc(Cl)c(C6CCC(=O)NC6=O)c4)CC5)CC3)cc2cc1NC(=O)c1cncc(C#N)c1` (stereo partly shown) [I-255] were over 200 nM and over 200 nM.
Consider `O=C1CCN(c2cc(C#CCOC3CCN(C[C@H]4CC[C@H](n5cc(NC(=O)c6cnn7ccc(N8C[C@H]9C[C@@H]8CO9)nc67)c(C(F)F)n5)CC4)CC3)ccc2Cl)C(=O)N1` [I-256], for which the DC50 is, setting by setting: under setting [1], over 200 nM; under setting [2], over 200 nM.
`O=C1CCC(c2cc(C#CCOC3CCN(C[C@H]4CC[C@H](n5cc(NC(=O)c6cnn7ccc(N8C[C@H]9C[C@@H]8CO9)nc67)c(C(F)F)n5)CC4)CC3)ccc2Cl)C(=O)N1` (stereo partly shown) [I-257]: the DC50 under setting [1] is over 200 nM and the half-maximal degradation concentration (DC50) under setting [2] was over 200 nM.
As to `O=C1CCN(c2cc(C#CCN3CCN(C[C@H]4CC[C@@H](n5cc(NC(=O)c6cnn7ccc(N8C[C@H]9C[C@@H]8CO9)nc67)c(C(F)F)n5)CC4)CC3)ccc2Cl)C(=O)N1` [I-258], the DC50 reads like this: under setting [1], over 200 nM; under setting [2], over 200 nM.
In the case of `O=C1CCC(c2cc(C#CCN3CCN(C[C@H]4CC[C@@H](n5cc(NC(=O)c6cnn7ccc(N8C[C@H]9C[C@@H]8CO9)nc67)c(C(F)F)n5)CC4)CC3)ccc2Cl)C(=O)N1` (stereo partly shown) [I-259], the 50% degradation concentration (DC50) is over 200 nM under setting [1] and over 200 nM under setting [2].
With `Cn1c(=O)n(C2CCC(=O)NC2=O)c2cccc(C#CCOC3CCN(C[C@H]4CC[C@H](n5cc(NC(=O)c6cccc(C#N)n6)c(C(F)F)n5)CC4)CC3)c21` (stereo partly shown) [I-260], the DC50 reads like this: under setting [1], over 200 nM; under setting [2], over 200 nM.
Consider `Cn1c(=O)n(C2CCC(=O)NC2=O)c2cccc(C#CCN3CCN(C[C@H]4CC[C@H](n5cc(NC(=O)c6cccc(C#N)n6)c(C(F)F)n5)CC4)CC3)c21` (stereo partly shown) [I-261], for which the half-maximal degradation concentration (DC50) reads like this: under setting [1], over 200 nM; under setting [2], over 200 nM.
As for `Cn1c(=O)n(C2CCC(=O)NC2=O)c2cccc(C#CCOC3CCN(C[C@H]4CC[C@H](n5cc(NC(=O)c6cccc(C#N)n6)c(C(C)(C)O)n5)CC4)CC3)c21` (stereo partly shown) [I-262], the DC50 is over 200 nM under setting [1] and over 200 nM under setting [2].
Consider `Cn1c(=O)n(C2CCC(=O)NC2=O)c2cccc(C#CCN3CCN(C[C@H]4CC[C@H](n5cc(NC(=O)c6cccc(C#N)n6)c(C(C)(C)O)n5)CC4)CC3)c21` (stereo partly shown) [I-263], for which the DC50 under setting [1] was over 200 nM and the DC50 under setting [2] was over 200 nM.
Consider `Cn1c(=O)n(C2CCC(=O)NC2=O)c2cccc(C#CCOC3CCN(C[C@H]4CC[C@H](n5cc(NC(=O)c6cncc(C#N)c6)c(C(F)F)n5)CC4)CC3)c21` (stereo partly shown) [I-264], for which the DC50 is over 200 nM under setting [1] and over 200 nM under setting [2].
With `Cn1c(=O)n(C2CCC(=O)NC2=O)c2cccc(C#CCN3CCN(C[C@H]4CC[C@H](n5cc(NC(=O)c6cncc(C#N)c6)c(C(F)F)n5)CC4)CC3)c21` (stereo partly shown) [I-265], the half-maximal degradation concentration (DC50) under setting [1] is over 200 nM and the 50% degradation concentration (DC50) under setting [2] is over 200 nM.
As for `Cn1c(=O)n(C2CCC(=O)NC2=O)c2cccc(C#CCOC3CCN(C[C@H]4CC[C@H](n5cc(NC(=O)c6cncc(C#N)c6)c(C(C)(C)O)n5)CC4)CC3)c21` (stereo partly shown) [I-266], the DC50 by setting is: under setting [1], over 200 nM; under setting [2], over 200 nM.
For the compound `Cn1c(=O)n(C2CCC(=O)NC2=O)c2cccc(C#CCN3CCN(C[C@H]4CC[C@H](n5cc(NC(=O)c6cncc(C#N)c6)c(C(C)(C)O)n5)CC4)CC3)c21` (stereo partly shown) [I-267], the half-maximal degradation concentration (DC50) under setting [1] is over 200 nM and the DC50 under setting [2] is over 200 nM.
`Cc1ccc(-c2nn([C@H]3CC[C@H](CN4CCC(OCC#Cc5cccc6c5n(C)c(=O)n6C5CCC(=O)NC5=O)CC4)CC3)cc2NC(=O)c2cncc(C#N)c2)nc1` (stereo partly shown) [I-268]: the 50% degradation concentration (DC50) reads like this: under setting [1], over 200 nM; under setting [2], over 200 nM.
For the compound `Cc1ccc(-c2nn([C@H]3CC[C@H](CN4CCN(CC#Cc5cccc6c5n(C)c(=O)n6C5CCC(=O)NC5=O)CC4)CC3)cc2NC(=O)c2cncc(C#N)c2)nc1` (stereo partly shown) [I-269], the half-maximal degradation concentration (DC50) is over 200 nM under setting [1] and over 200 nM under setting [2].
As to `CN(C[C@H]1CC[C@H](n2cc(CC(=O)c3cnn4ccc(N5CCC(C)(C)CC5)nc34)c(C(F)F)n2)CC1)C1CCN(c2cccc3c2n(C)c(=O)n3C2CCC(=O)NC2=O)CC1` (stereo partly shown) [I-270], the half-maximal degradation concentration (DC50) is, setting by setting: under setting [1], over 200 nM; under setting [2], 10 to 100 nM.
On the same counts, the results for `CC1CCN(c2ccn3ncc(C(=O)Nc4cn([C@H]5CC[C@H](CN(C)C6CCN(c7cccc8c7n(C)c(=O)n8C7CCC(=O)NC7=O)CC6)CC5)nc4C(F)F)c3n2)CC1` (stereo partly shown) [I-271] are over 200 nM and under 10 nM.
On the same counts, the results for `CN(C[C@H]1CC[C@H](n2cc(NC(=O)c3cnn4ccc(N5CCC6(CC5)CC6)nc34)c(C(F)F)n2)CC1)C1CCN(c2cccc3c2n(C)c(=O)n3C2CCC(=O)NC2=O)CC1` (stereo partly shown) [I-272] are over 200 nM and under 10 nM.
`CN(C[C@H]1CC[C@H](n2cc(NC(=O)c3cnn4ccc(N5CCC(F)(F)CC5)nc34)c(C(F)F)n2)CC1)C1CCN(c2cccc3c2n(C)c(=O)n3C2CCC(=O)NC2=O)CC1` (stereo partly shown) [I-273]: the DC50 runs as follows: under setting [1], over 200 nM; under setting [2], under 10 nM.
Consider `CN(C[C@H]1CC[C@H](n2cc(NC(=O)c3cnn4ccc(N5CC6(CC6)C5)nc34)c(C(F)F)n2)CC1)C1CCN(c2cccc3c2n(C)c(=O)n3C2CCC(=O)NC2=O)CC1` (stereo partly shown) [I-274], for which the DC50 is, setting by setting: under setting [1], over 200 nM; under setting [2], under 10 nM.
Taken in the same sequence, the figures for `CN(C[C@H]1CC[C@H](n2cc(NC(=O)c3cnn4ccc(N5CC(C)(C)C5)nc34)c(C(F)F)n2)CC1)C1CCN(c2cccc3c2n(C)c(=O)n3C2CCC(=O)NC2=O)CC1` (stereo partly shown) [I-275] were over 200 nM and under 10 nM.
Taken in the same sequence, the figures for `CN(C[C@H]1CC[C@H](n2cc(NC(=O)c3cnn4ccc(N5CC(F)(F)C5)nc34)c(C(F)F)n2)CC1)C1CCN(c2cccc3c2n(C)c(=O)n3C2CCC(=O)NC2=O)CC1` (stereo partly shown) [I-276] were over 200 nM and under 10 nM.
Consider `CN(C[C@H]1CC[C@H](n2cc(NC(=O)c3cnn4ccc(N5CCC5)nc34)c(C(F)F)n2)CC1)C1CCN(c2cccc3c2n(C)c(=O)n3C2CCC(=O)NC2=O)CC1` (stereo partly shown) [I-277], for which the DC50 is over 200 nM under setting [1] and under 10 nM under setting [2].
On the same counts, the results for `CN(C[C@H]1CC[C@H](n2cc(NC(=O)c3cnn4ccc(N5CCCC5)nc34)c(C(F)F)n2)CC1)C1CCN(c2cccc3c2n(C)c(=O)n3C2CCC(=O)NC2=O)CC1` (stereo partly shown) [I-278] are over 200 nM and under 10 nM.
On the same counts, the results for `Cn1c(=O)n(C2CCC(=O)NC2=O)c2cccc(C#CCN3CCN(C[C@H]4CC[C@H](n5cc(NC(=O)c6cnn7ccc(N8C[C@H]9C[C@@H]8CO9)nc67)c(C(C)(C)O)n5)CC4)CC3)c21` (stereo partly shown) [I-279] are over 200 nM and over 200 nM.
As for `Cn1c(=O)n(C2CCC(=O)NC2=O)c2cccc(C#CCOC3CCN(C[C@H]4CC[C@H](n5cc(NC(=O)c6cnn7ccc(N8C[C@H]9C[C@@H]8CO9)nc67)c(F)n5)CC4)CC3)c21` (stereo partly shown) [I-280], the DC50 is over 200 nM under setting [1] and over 200 nM under setting [2].

Values taken from patent US12091411B2, “IRAK degraders and uses thereof” (Kymera Therapeutics, Inc., priority 2022, dated 2024).
